The test system of assay [1] is rats with middle cerebral artery occlusion (MCAO). The experiment in a line: Acute cerebral infarction model in rats with middle cerebral artery occlusion (MCAO). The format is in vivo, male SD rats. Conditions: MCAO. The text has this: After obtaining the active molecules that can promote the expression of VEGF-A mRNA in the animal model of inflammatory angiogenesis, a rat model of cerebral infarction was used for further verification. Following the method as described in Longa, E. Z., Longa, E. Z., Weinstein, P. R., Carlson, S. & Commin, R. Reversible middle cerebral artery occlusion without craniectomy in rats. [J]. Stroke, 1989. 1: 84-91, an acute cerebral infarction model was established in rats with middle cerebral artery occlusion (MCAO); and following the method as described in C. dela Torre, T. Fortin, G. A. S. Park, K. S. Butler, P. Kozlowski, B. A. Pappas, H. de Socarraz, J. K. Saunders and M. T. Richard. [J]. Brain Research, 1992. 582:186-195, a chronic cerebral ischemia model was established in rats with permanent ligation of bilateral common carotid arteries (2VO). The inhibition on cerebral infarction and neuroprotection for brain injury of the active molecules screened in Effect Example 2 were verified.
The control drugs were: Edaravone (purchased from Zhejiang Shengtong Biotechnology Co., Ltd.), Clopidogrel bisulfate (purchased from Wuhan Yuancheng Gongchuang Technology Co., Ltd.), and Salvianolate (purchased from Henan Provincial People's Hospital). Clopidogrel bisulfate is a platelet aggregation inhibitor, and Edaravone is a brain protectant (free radical scavenger). The MCAO model of rats was made by the thread occlusion method. The rats used in this effect example were male SD rats weighing 280-320 grams, purchased from Shanghai SLAC Laboratory Animal Co., Ltd. Five SD (Sprague Dawley) rats in each group were administered by intraperitoneal injection, 2 h before surgery, and every 24 h after modeling.
Three days later, the brain was taken, and the rat brain was stained with TTC (2,3,5-triphenyltetrazolium chloride, to detect the cell viability) and then photographed. Infarction rate (%)=(Non-infarction area of right brain section−non-infarction area of left brain section)/total area of brain section*100%. According to t tests, *P<0.05, **P<0.01, ***P<0.001 compared with the model group (MCAO). Infarction inhibition rate (%) at different doses=(infarction rate of model group-infarction rate of treatment group)/infarction rate of model group*100%. The infarction inhibition rate at different doses was plotted, and the ED50 of the drug was calculated.
Moreover, the body weight of the rats was recorded. The rate of body weight change was calculated according to a formula: Rate of body weight change (%)=(final weight-initial weight)/[…].
Three days after the acute cerebral infarction model was established in rats with MCAO, the test rats were scored for neurological function according to the Longa nerve scoring standard.
Three days after the acute cerebral infarction model of MCAO was established in rats, the intact brain tissue was taken out, olfactory bulb and the brain tissue that is 4 mm in front of the frontal pole was removed, and the immediately adjacent brain tissue of 2 mm thick was taken for water content measurement in the brain. The water content in brain tissue is calculated by the formula: (WW−DW)/WW×100%, where WW is the wet weight and DW is the dry weight. Three days after the acute cerebral infarction model of MCAO was established in rats, the brain tissue was stained with Evans Blue (EB, a commonly used azo dye preparation) to evaluate the permeability across the blood-brain barrier (BBB), so as to evaluate the integrity of blood-brain barrier. Both experiments were tested with the optimal dose of each drug previously determined: TG-028 (5 mg/Kg), Salvianolate (20 mg/Kg), Clopidogrel bisulfate (40 mg/Kg), Edaravone (40 mg/Kg).

Assay [2] has as its system VEGF-A mRNA expression in macrophages (RAW264.7). Description: In vitro macrophage experiment: activity of compounds to promote VEGF-A mRNA expression (RT-qPCR). The settings on record: RAW264.7 macrophages, 3 h, no drug = 1; for fold induction at 100 µM: 0.1 mM; for fold induction at 500 µM: 0.5 mM; for fold induction at 1000 µM: 1 mM; for fold induction at 2000 µM: 2 mM; for fold induction at 3000 µM: 3 mM; for fold induction at 4000 µM: 4 mM. More on the design: Expression level of VEGF-A mRNA: unit of the concentration uncertain. It is filed as cell-based. Put shortly: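 RAW264.7 macrophages were exposed to test compounds at various concentrations for 3 h at 37° C. VEGF-A mRNA was measured by SYBR Green RT-qPCR, normalized to β-Actin, and expressed as 2^−ΔΔCt relative to untreated cells (=1). Activity is the maximal fold induction, with ≥4 as hit criterion.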

The subject of another assay is VEGF-A mRNA. The experiment in a line: Sponge implanted animal model of inflammatory angiogenesis: VEGF-A mRNA expression. The format is in vivo, male C57/BL6 mice. Conditions: for activity in promoting VEGF-A mRNA expression compared with Salvianolate (in words): positive control Salvianolate 60 mg/kg/d, sponge implanted mice. The text has this:
The target pro-angiogenic compounds TG-052, TG-053, TG-054, TG-028, and TG-055 obtained in Effect Example 1 that perform well at the cellular level were further screened for the active molecules that promote VEGF-A mRNA expression in the “sponge implanted animal model” of inflammatory angiogenesis. […] This model can well reflect the expression of VEGF-A mRNA in macrophages recruited around inflammation.
A sponge implanted mouse model was established following the method as described in Zhang J, Modi Y, and Yarovinsky T, et al. Macrophage β2 integrin-mediated, HuR-dependent stabilization of angiogenic factor-encoding mRNAs in inflammatory angiogenesis. [J]. American Journal of Pathology, 2012. 180(4): 1751-1760. The mice used in the present invention was male C57/BL6 mice aged 6-8 weeks and weighing 20-25 g, purchased from Shanghai SLAC Laboratory Animal Co., Ltd, Production License No: SCXK (Shanghai) 2013-0016. The compound screened in Effect Example 1 was weighed according to the amount intended to be used in two weeks, and then mixed with a gel matrix and a solvent to prepare a sustained-release gel of the compound (see Patent Application No.: CN201610168493.9 for the details of the preparation method of the sustained-release gel and the model establishment and detection methods). The specific steps were as follows. A certain amount of the compound obtained in Effect Example 1 was weighed into a 1.5 mL EP tube, and then a certain amount of poly-L-lactic acid (PLLA) with a weight average molecular weight of less than 10,000 was weighed and mixed with the compound (at a weight ratio of the compound to PLLA of 0.5:1 to 2:1). Finally a certain amount of DMSO (less than 100 microliters) was added, spun, mixed well, and then sealed with a sealing film. After continuous ultrasonication at 200 W and 25° C. for 5 h, a sustained-release gel of the compound was obtained, which was stored at 4° C. for later use.
The prepared sustained-release gel can release the drug completely within 2 weeks. The sustained-release gel and sponge were both subcutaneously implanted in the mice at the back. After 2 weeks, the sponge was taken out, and the residual tissue and fur were removed. The sponge was transferred to a cell culture plate containing 10 mL of DMEM medium containing collagenase (Collagenase:DMEM=10 mg/10 mL), cut, and incubated for 1 h in a cell incubator. Then the culture medium containing sponge debris was filtered, and the resulting filtrate was centrifuged. The supernatant was discarded, and 500 μL of Trizol reagent was added to the pellet, and mixed uniformly by blowing. Then the liquid was transferred to a 1.5 mL EP tube, and stored at −80° C. RNA was extracted according to a conventional method, and the RNA concentration was determined using a microvolume nucleic acid and protein analyzer (Nanodrop2000c). The required volume V of RNA was calculated according to the RNA concentration, and the RNA reverse transcription reaction system was prepared according to Table 1. Then RNA reverse transcription (cDNA synthesis) was carried out according to the conditions described in Table 2. The resulting cDNA was used to prepare a fluorescence quantitative qPCR reaction solution according to Table 3. The fluorescence quantitative qPCR reaction conditions were set according to Table 4, and the fluorescence quantitative PCR reaction was performed using cDNA from the reverse transcription reaction as a template. The relative expression level 2^−ΔΔCt of the target gene was calculated from the Ct value of each sample with the blank group as a control and β-Actin as an internal reference. The expression level of VEGF-A mRNA in the cells extracted from the sponge was observed after 2 weeks. […]

Where [3] appears, read: Mus musculus, relative expression, read-out: Expression level of VEGF-A mRNA.

Turning to `COC(=O)[C@H](c1ccccc1Cl)N1CCc2sccc2C1` [Clopidogrel bisulfate, reference compound], the ED50 in assay [1] (Rattus norvegicus, ip, 72 h, intraperitoneal injection, TTC staining after 3 days, read-out: ED50 for infarction inhibition rate (%)) came to 28.1 mg/kg.
As to `OC[C@H]1O[C@@H](OCCCCc2ccc(OCc3ccc(F)cc3)cc2)[C@H](O)[C@@H](O)[C@@H]1O` [TG-051], the fold induction at 1 µM in assay [2] (Mus musculus, 1 μM, relative expression 2^-ΔΔCt, read-out: Expression level of VEGF-A mRNA) was 1.1. Also, in assay [2] (setting [3]), the fold induction at 100 µM was determined as 4.49, the fold induction at 500 µM was found to be 6.76, the fold induction at 1000 µM came out at 7.89 and the fold induction at 2000 µM came out at 11.2. The fold induction at 3000 µM in assay [2] (setting [3]) was 8.18.
`COc1ccc(CO[C@@H]2O[C@H](CO)[C@@H](O)[C@H](O)[C@H]2O)cc1` [TG-052]: in assay [2] (setting [3]), the fold induction at 500 µM was 19.7, the fold induction at 1000 µM came to 0.93, the fold induction at 2000 µM stood at 2.64 and the fold induction at 3000 µM was 2.69. In assay [2] (setting [3]), the fold induction at 4000 µM came to 3.51. Moreover, the “increase of expression level of VEGF-A mRNA compared with blank control without drugs” value in the assay with VEGF-A mRNA (41.37 mg/kg/d, sustained-release gel, 2 weeks, mice) is reported as “about 3 times”. The “activity in promoting VEGF-A mRNA expression compared with Salvianolate (in words)” value (“activity … compared with Salvianolate (in words)” below) in the assay on VEGF-A mRNA (2 weeks) is “comparable to that of Salvianolate”.
On to `COc1ccc(CCO[C@@H]2O[C@H](CO)[C@@H](O)[C@H](O)[C@H]2O)cc1` [TG-053], for which, in assay [2] (setting [3]), the fold induction at 500 µM amounted to 11.2, the fold induction at 1000 µM is 13.4, the fold induction at 2000 µM worked out at 6.82 and the fold induction at 3000 µM was 1.32. In addition, the fold induction at 4000 µM in assay [2] (setting [3]) came out at 1.8. Also, the “activity … compared with Salvianolate (in words)” value in the assay on VEGF-A mRNA (2 weeks) was “slightly lower activity in promoting the VEGF-A mRNA expression”.
For the compound `COc1ccc(CCCO[C@@H]2O[C@H](CO)[C@@H](O)[C@H](O)[C@H]2O)cc1` [TG-054], in assay [2] (setting [3]), the fold induction at 500 µM worked out at 3.63, the fold induction at 1000 µM worked out at 12.4, the fold induction at 2000 µM turned out to be 6.5 and the fold induction at 3000 µM came to 1.21. In addition, the fold induction at 4000 µM in assay [2] (setting [3]) was 2.01. For the same compound, the “activity … compared with Salvianolate (in words)” value with VEGF-A mRNA (2 weeks) was “slightly lower activity in promoting the VEGF-A mRNA expression”.
As for `OC[C@H]1O[C@@H](OCCc2ccc(O)cc2)[C@H](O)[C@@H](O)[C@@H]1O` [TG-056, salidroside, reference compound], in assay [2] (setting [3]), the fold induction at 100 µM amounted to 0.72, the fold induction at 500 µM was determined as 1.74, the fold induction at 1000 µM came to 2.24 and the fold induction at 2000 µM stood at 6.7. In addition, the fold induction at 3000 µM in assay [2] (setting [3]) stood at 2.31. Further, the “expression of VEGF-A mRNA (in words)” value in the assay on VEGF-A mRNA (various doses, alone, FIG. 19) was “very low expression of VEGF-A mRNA”.
For `COc1cc(CCCCO[C@@H]2O[C@H](CO)[C@@H](O)[C@H](O)[C@H]2O)ccc1O` [TG-057], in assay [1] (5 mg/kg, FIG. 20), the “Longa nerve scoring, protective effect on nerves (in words)” value is on record as “has a protective effect on nerves in rats after brain injury, but the effect is not as strong as that of TG-028” and the “effect of inhibiting cerebral infarction (in words)” value was “has the effect of inhibiting cerebral infarction in the rats”.
For the compound TG-003, the “Expression level of VEGF-A mRNA” value in assay [2] (1 μM, relative expression 2^-ΔΔCt) is reported as 0.96; in assay [2] (0.1 (unit uncertain), relative expression) it was 3.56; in assay [2] (0.5 (unit uncertain), relative expression) it was 4.69; in assay [2] (1 (unit uncertain), relative expression), 3.12; in assay [2] (2 (unit uncertain), relative expression) it was 1.39; in assay [2] (3 (unit uncertain), relative expression), 0.56.

For the origin of these results see US11325937B2, “Glycoside compound and preparation method therefor, composition, application, and intermediate” (SHANGHAI HUTCHISON PHARMACEUTICALS LIMITED, priority 2018, dated 2022).
